This is an account of results in patent publication US10519177B2, “Heterocyclic compounds and uses thereof” (Plexxikon Inc., priority 2013, dated 2019).

Structures are written as SMILES.

In one assay the target is BRD4-BD12 (1-477) (Homo sapiens (Human), UniProt O60885). Nature of the assay: Alphascreen binding assay BRD4-BD12. The settings on record: BRD4(1 2) H4; read-out: Biochemical activity (IC50 μM) BRD4(1 2) H4. An outline of the steps:
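In this competition format, compounds displace a biotinylated tetra-acetyl H4 peptide from E. coli-expressed human BRD4 bromodomain constructs captured on nickel chelate beads. The reaction runs at pH 7.5 with 2 mM DTT and detergent for 1 h at room temperature before a 30 min bead step.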
On the technique in general: Bead proximity is the source of the signal in Alpha formats.

The next assay relates to MV-4-11 cells. Kind of assay: Oncology cell growth assay MV-4-11 (CellTiter Glo). The settings on record: Homo sapiens, MV4-11, 72 h; MV-4-11, 3d growth; read-out: Cell activity (IC50 μM) MV-4-11 3d-Growth. It counts as cell-based. An outline of the steps:
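Growth read by CellTiter Glo luminescence after 72 h compound treatment of MLL-AF4-bearing MV-4-11 cells (3000/well). Titration: 8 points, 1:3 steps, maximum 10 μM, 0.2% DMSO final. Data normalized to DMSO wells, four-parameter fit gives pIC50.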
(In general: Cellular ATP, detected with luciferase, serves as a proxy for viable cell number.)

The subject of a further assay is bromodomain. Kind of assay: at least one of the bromodomain cell assays of Example 57. The assay is classed as cell-based. The settings on record: at least one of the bromodomain cell assays described in Example 57; read-out: IC50 in at least one of the bromodomain cell assays.

With `Cc1noc(C)c1-c1cnc2c(-c3ccc(-c4nnn[nH]4)cc3)cn(CC3(F)CCCCC3)c2c1` [P-0460, 4-[1-[(1-fluorocyclohexyl)methyl]-3-[4-(1H-tetrazol-5-yl)phenyl]pyrrolo[3,2-b]pyridin-6-yl]-3,5-dimethyl-isoxazole], the results for the IC50 at BRD4-BD12 (1-477), with MV-4-11 cells and in the assay on bromodomain were < 1 µM, < 1 µM and < 10000 nM, respectively.
As for `Cc1noc(C)c1-c1cnc2c(-c3ccc(-c4nnn[nH]4)cc3)cn(CC3(F)CCC(F)(F)CC3)c2c1` [P-0461, 3,5-dimethyl-4-[3-[4-(1H-tetrazol-5-yl)phenyl]-1-[(1,4,4-trifluorocyclohexyl)methyl]pyrrolo[3,2-b]pyridin-6-yl]isoxazole], the IC50 was < 1 µM on BRD4-BD12 (1-477), < 1 µM with MV-4-11 cells and < 10000 nM in the assay on bromodomain.
For `Cc1noc(C)c1-c1cnc2c(C#CC(=O)O)cn(CC3CCC(F)(F)CC3)c2c1` [P-0462, 3-[1-[(4,4-difluorocyclohexyl)methyl]-6-(3,5-dimethylisoxazol-4-yl)pyrrolo[3,2-b]pyridin-3-yl]prop-2-ynoic acid], the IC50 was < 1 µM at BRD4-BD12 (1-477), 1 to 10 µM with MV-4-11 cells and < 10000 nM in the assay with bromodomain.
For the compound `Cc1ccc(-c2cn(CC3(F)CCCCC3)c3cc(-c4c(C)noc4C)cnc23)cn1` [P-0463, 4-[1-[(1-fluorocyclohexyl)methyl]-3-(6-methyl-3-pyridyl)pyrrolo[3,2-b]pyridin-6-yl]-3,5-dimethyl-isoxazole], the IC50 on BRD4-BD12 (1-477) was < 1 µM; with MV-4-11 cells, < 1 µM; in the assay on bromodomain, < 10000 nM.
On to `COc1ncc(-c2cn(CC3(F)CCCCC3)c3cc(-c4c(C)noc4C)cnc23)cn1` [P-0464, 4-[1-[(1-fluorocyclohexyl)methyl]-3-(2-methoxypyrimidin-5-yl)pyrrolo[3,2-b]pyridin-6-yl]-3,5-dimethyl-isoxazole], for which the IC50 is < 1 µM on BRD4-BD12 (1-477), < 1 µM in the assay with MV-4-11 cells and < 10000 nM with bromodomain.
Consider `CNC(=O)c1ccc(-c2cn(CC3(F)CCCCC3)c3cc(-c4c(C)noc4C)cnc23)cc1` [P-0465, 4-[6-(3,5-dimethylisoxazol-4-yl)-1-[(1-fluorocyclohexyl)methyl]pyrrolo[3,2-b]pyridin-3-yl]-N-methyl-benzamide], for which the results for the IC50 on BRD4-BD12 (1-477), in the assay on MV-4-11 cells and with bromodomain were < 1 µM, < 1 µM and < 10000 nM, respectively.
On to `Cc1noc(C)c1-c1cnc2c(-c3ccc(C(N)=O)cc3)cn(CC3(F)CCCCC3)c2c1` [P-0466, 4-[6-(3,5-dimethylisoxazol-4-yl)-1-[(1-fluorocyclohexyl)methyl]pyrrolo[3,2-b]pyridin-3-yl]benzamide], for which the half-maximal inhibitory concentration (IC50) at BRD4-BD12 (1-477) was < 1 µM; in the assay with MV-4-11 cells, < 1 µM; in the assay with bromodomain, < 10000 nM.
Take `Cc1noc(C)c1-c1cnc2c(-c3ccc(F)c(C(=O)O)c3)cn(CC3(F)CCCCC3)c2c1` [P-0467, 5-[6-(3,5-dimethylisoxazol-4-yl)-1-[(1-fluorocyclohexyl)methyl]pyrrolo[3,2-b]pyridin-3-yl]-2-fluoro-benzoic acid]: the IC50 is < 1 µM on BRD4-BD12 (1-477), < 1 µM in the assay with MV-4-11 cells and < 10000 nM in the assay with bromodomain.
With `Cc1noc(C)c1-c1cnc2c(-c3ccc(C(=O)O)cc3F)cn(CC3(F)CCCCC3)c2c1` [P-0468, 4-[6-(3,5-dimethylisoxazol-4-yl)-1-[(1-fluorocyclohexyl)methyl]pyrrolo[3,2-b]pyridin-3-yl]-3-fluoro-benzoic acid], the results for the IC50 at BRD4-BD12 (1-477), with MV-4-11 cells and in the assay with bromodomain were < 1 µM, < 1 µM and < 10000 nM, respectively.
With `Cc1noc(C)c1-c1cnc2c(-c3ccc(C(=O)O)c(F)c3)cn(CC3(F)CCCCC3)c2c1` [P-0469, 4-[6-(3,5-dimethylisoxazol-4-yl)-1-[(1-fluorocyclohexyl)methyl]pyrrolo[3,2-b]pyridin-3-yl]-2-fluoro-benzoic acid], the IC50 at BRD4-BD12 (1-477) was < 1 µM; in the assay on MV-4-11 cells it was < 1 µM; in the assay with bromodomain, < 10000 nM.
In the case of `COc1ccc(-c2cn(CC3(F)CCCCC3)c3cc(-c4c(C)noc4C)cnc23)cn1` [P-0470, 4-[1-[(1-fluorocyclohexyl)methyl]-3-(6-methoxy-3-pyridyl)pyrrolo[3,2-b]pyridin-6-yl]-3,5-dimethyl-isoxazole], the IC50 was < 1 µM on BRD4-BD12 (1-477), < 1 µM in the assay with MV-4-11 cells and < 10000 nM with bromodomain.
For `Cc1noc(C)c1-c1cnc2c(-c3ccc(=O)n(C)c3)cn(CC3(F)CCCCC3)c2c1` [P-0471, 5-[6-(3,5-dimethylisoxazol-4-yl)-1-[(1-fluorocyclohexyl)methyl]pyrrolo[3,2-b]pyridin-3-yl]-1-methyl-pyridin-2-one], the IC50 on BRD4-BD12 (1-477) is < 1 µM; in the assay with MV-4-11 cells it was < 1 µM; in the assay on bromodomain, < 10000 nM.
With `Cc1noc(C)c1-c1cnc2c(-c3cnc(N)cn3)cn(CC3(F)CCCCC3)c2c1` [P-0472, 5-[6-(3,5-dimethylisoxazol-4-yl)-1-[(1-fluorocyclohexyl)methyl]pyrrolo[3,2-b]pyridin-3-yl]pyrazin-2-amine], the IC50 on BRD4-BD12 (1-477) is < 1 µM; with MV-4-11 cells, < 1 µM; in the assay with bromodomain, < 10000 nM.
Regarding `Cc1noc(C)c1-c1cnc2c(-c3cnc(N)nc3)cn(CC3(F)CCCCC3)c2c1` [P-0473, 5-[6-(3,5-dimethylisoxazol-4-yl)-1-[(1-fluorocyclohexyl)methyl]pyrrolo[3,2-b]pyridin-3-yl]pyrimidin-2-amine], the IC50 at BRD4-BD12 (1-477) is < 1 µM; with MV-4-11 cells it was < 1 µM; in the assay with bromodomain it was < 10000 nM.
Turning to `Cc1noc(C)c1-c1cnc2c(-c3cnc(C4CC4)nc3)cn(CC3(F)CCCCC3)c2c1` [P-0474, 4-[3-(2-cyclopropylpyrimidin-5-yl)-1-[(1-fluorocyclohexyl)methyl]pyrrolo[3,2-b]pyridin-6-yl]-3,5-dimethyl-isoxazole], the values for the IC50 at BRD4-BD12 (1-477), in the assay with MV-4-11 cells and in the assay on bromodomain were < 1 µM, < 1 µM and < 10000 nM, respectively.
Regarding `Cc1noc(C)c1-c1cnc2c(-c3cccc(S(N)(=O)=O)c3)cn(CC3(F)CCCCC3)c2c1` [P-0475, 3-[6-(3,5-dimethylisoxazol-4-yl)-1-[(1-fluorocyclohexyl)methyl]pyrrolo[3,2-b]pyridin-3-yl]benzenesulfonamide], the IC50 on BRD4-BD12 (1-477) is < 1 µM; in the assay with MV-4-11 cells, < 1 µM; in the assay with bromodomain, < 10000 nM.
On to `Cc1noc(C)c1-c1cnc2c(-c3ccc(C(=O)O)c(F)c3F)cn(CC3(F)CCCCC3)c2c1` [P-0476, 4-[6-(3,5-dimethylisoxazol-4-yl)-1-[(1-fluorocyclohexyl)methyl]pyrrolo[3,2-b]pyridin-3-yl]-2,3-difluoro-benzoic acid], for which the values for the IC50 at BRD4-BD12 (1-477), with MV-4-11 cells and in the assay with bromodomain were < 1 µM, < 1 µM and < 10000 nM, respectively.
For the compound `Cc1noc(C)c1-c1cnc2c(-c3csc(C(=O)O)c3)cn(CC3(F)CCCCC3)c2c1` [P-0477, 4-[6-(3,5-dimethylisoxazol-4-yl)-1-[(1-fluorocyclohexyl)methyl]pyrrolo[3,2-b]pyridin-3-yl]thiophene-2-carboxylic acid], the IC50 is < 1 µM at BRD4-BD12 (1-477), 1 to 10 µM with MV-4-11 cells and < 10000 nM in the assay on bromodomain.
On to `Cc1noc(C)c1-c1cnc2c(-c3ccc(C(=O)O)s3)cn(CC3(F)CCCCC3)c2c1` [P-0478, 5-[6-(3,5-dimethylisoxazol-4-yl)-1-[(1-fluorocyclohexyl)methyl]pyrrolo[3,2-b]pyridin-3-yl]thiophene-2-carboxylic acid], for which the concentration for half-maximal inhibition (IC50) at BRD4-BD12 (1-477) was < 1 µM; with MV-4-11 cells, < 1 µM; in the assay with bromodomain, < 10000 nM.

One may read the IC50 as the midpoint of a concentration-inhibition curve.
